# How the values were obtained:
# MCF7 = assay: Cytotoxicity against human MCF7 cells by resazurin microplate assay; format: functional, cell-based
# NCI-H187 = assay: Cytotoxicity against human NCI-H187 by resazurin microplate assay; format: functional, cell-based
# Vero = assay: Cytotoxicity against african green monkey Vero cells by green fluorescent protein microplate assay; format: cell-based; conditions: Chlorocebus sabaeus
# KB = assay: Cytotoxicity against human KB cells by resazurin microplate assay; format: functional, cell-based
structure (smiles),measurement,setting,value
C=C[C@@]1(C)CCc2c3c(c(O)c(O[C@H]4O[C@H](CO)[C@@H](O)[C@H](O)[C@H]4O)c2[C@H]1O)C(C)(C)CCC3 [XYLOPIMARANE],IC50,MCF7,13 µM
same,IC50,NCI-H187,65 µM
same,IC50,Vero,41 µM
same,IC50,KB,1 µM

# Reference: ChEMBL document CHEMBL1687860, “Ring B aromatic norpimarane glucoside from a Xylaria sp” (J Nat Prod, 2011)
